ChEMBL document CHEMBL1201862, “PubChem BioAssay data set” (2004)
Calls of active or inactive are those of the source.

Columns and labels:
[1] = target: T1, Mucolipin-3 (Homo sapiens, UniProt Q8TDD5); assay: Dose response cell-based high-throughput screening assay for agonists of the transient receptor potential channel ML3 (TRPML3). [Related pubchem assays: 1526, 1424, 1448 ]; assay type: functional
T1 sequence (Q8TDD5 whole entry): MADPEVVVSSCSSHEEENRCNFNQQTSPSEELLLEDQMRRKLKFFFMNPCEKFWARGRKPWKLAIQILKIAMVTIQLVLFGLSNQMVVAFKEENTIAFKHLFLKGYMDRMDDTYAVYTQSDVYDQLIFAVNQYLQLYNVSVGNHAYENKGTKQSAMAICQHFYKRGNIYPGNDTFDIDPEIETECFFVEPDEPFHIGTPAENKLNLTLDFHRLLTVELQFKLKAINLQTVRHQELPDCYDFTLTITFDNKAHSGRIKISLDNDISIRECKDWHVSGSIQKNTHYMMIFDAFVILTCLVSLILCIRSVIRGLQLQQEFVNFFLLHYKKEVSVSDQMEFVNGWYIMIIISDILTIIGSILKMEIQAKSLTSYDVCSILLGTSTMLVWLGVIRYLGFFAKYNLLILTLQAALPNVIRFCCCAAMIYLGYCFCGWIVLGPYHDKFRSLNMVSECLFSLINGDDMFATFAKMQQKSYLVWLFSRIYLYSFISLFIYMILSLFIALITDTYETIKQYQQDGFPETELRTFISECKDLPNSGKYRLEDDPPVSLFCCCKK

[2] = target: Ion channel NompC (Danio rerio, UniProt Q7T1G6); assay: Fluorescence counterscreen assay for TRPML3 agonists: dose response cell-based high-throughput screening assay to identify agonists of the transient receptor potential channel N1 (TRPN1). [Related pubchem assays: 1526, 1424, 1448 ]; assay type: functional
[3] = A cytotoxicity screen of small molecule inhibitors of the PhoP region in Salmonella typhi identified in the primary screen. [Related pubchem assays: 1850, 1864, 1985 ]; assay type: functional
[4] = target: Kallikrein-7 (Homo sapiens, UniProt P49862); assay: Fluorescence Intensity-based biochemical primary high throughput dose response assay to identify activators of kallikrein-7 (K7) zymogen.
[5] = cells; assay type: functional, cell-based
[6] = cells; assay type: functional, cell-based; remark: listed apart in the source
[7] = target: T2, DNA repair and recombination protein RAD54-like (Homo sapiens, UniProt Q92698); assay: inhibitors of human RAD54 branch migration, confirmation, biochemical, fluorescence, cherry-picked samples, dose series (AID 651657); assay type: functional
T2 sequence (Q92698 whole entry): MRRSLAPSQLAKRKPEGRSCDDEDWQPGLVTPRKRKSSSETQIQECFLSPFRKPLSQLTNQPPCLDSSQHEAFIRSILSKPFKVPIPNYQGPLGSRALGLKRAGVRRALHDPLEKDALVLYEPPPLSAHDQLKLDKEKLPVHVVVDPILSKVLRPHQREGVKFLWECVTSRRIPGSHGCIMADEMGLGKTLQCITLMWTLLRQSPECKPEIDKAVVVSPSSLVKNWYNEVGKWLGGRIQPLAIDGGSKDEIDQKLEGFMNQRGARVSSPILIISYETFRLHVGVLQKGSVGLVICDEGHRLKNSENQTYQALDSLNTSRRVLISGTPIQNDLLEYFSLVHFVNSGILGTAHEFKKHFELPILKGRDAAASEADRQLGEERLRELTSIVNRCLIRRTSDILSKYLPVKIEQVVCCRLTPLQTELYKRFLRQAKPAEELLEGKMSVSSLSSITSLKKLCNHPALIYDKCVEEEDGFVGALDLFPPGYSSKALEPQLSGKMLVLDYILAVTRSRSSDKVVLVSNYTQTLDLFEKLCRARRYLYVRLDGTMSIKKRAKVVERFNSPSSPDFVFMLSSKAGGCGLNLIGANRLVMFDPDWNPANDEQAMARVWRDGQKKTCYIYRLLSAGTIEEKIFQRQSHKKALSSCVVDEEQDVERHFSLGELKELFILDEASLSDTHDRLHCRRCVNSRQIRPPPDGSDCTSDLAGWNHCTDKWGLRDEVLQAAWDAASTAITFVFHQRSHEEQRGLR

[8] = P. falciparum 3D7-ScDHODH growth inhibitors, dose response, SYBR Green, dry powder samples (AID 1159570); assay type: functional, cell-based;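 further: parasite growth measured after 72 hours of compound exposure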
[9] = intracellular Trypanosoma cruzi inhibitors in host cells – cell-based, plate reader, cherry-pick samples, set 3, dose response (AID 651818); assay type: functional;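 further: compounds incubated with infected cells for about four days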
[10] = P. falciparum ATP4 D1247Y mutant growth inhibitors, dose response, NITD609-resistant line, SYBR Green, dry powder (AID 1159571); assay type: functional, cell-based;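 further: parasites synchronized at ring stage by sorbitol before testing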
[11] = HepG2 cell cytotoxicity, dose response, cytotoxicity control, plate reader, dry powder samples (AID 1159569); assay type: functional, cell-based;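 further: inhibitor potency with signal falling toward the positive control level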
[12] = P. falciparum Dd2 growth inhibitors, dose response, SYBR Green, dry powder samples (AID 1159566); assay type: functional, cell-based;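 further: potency for growth inhibition with lower SYBR green DNA signal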
[13] = P. falciparum Dd2 growth inhibitors, dose response, SYBR Green, cherry-picked samples (AID 1159567); assay type: functional, cell-based
[14] = target: T3, Aminopeptidase N (Plasmodium falciparum FcB1/Columbia, UniProt O96935); assay: P. falciparum M1AAP inhibitors, biochemical, fluorogenic H-Leu-NHMec substrate, 1536-well (AID 1445); design: species or system Plasmodium falciparum 3D7, 3D7
T3 sequence (O96935 whole entry): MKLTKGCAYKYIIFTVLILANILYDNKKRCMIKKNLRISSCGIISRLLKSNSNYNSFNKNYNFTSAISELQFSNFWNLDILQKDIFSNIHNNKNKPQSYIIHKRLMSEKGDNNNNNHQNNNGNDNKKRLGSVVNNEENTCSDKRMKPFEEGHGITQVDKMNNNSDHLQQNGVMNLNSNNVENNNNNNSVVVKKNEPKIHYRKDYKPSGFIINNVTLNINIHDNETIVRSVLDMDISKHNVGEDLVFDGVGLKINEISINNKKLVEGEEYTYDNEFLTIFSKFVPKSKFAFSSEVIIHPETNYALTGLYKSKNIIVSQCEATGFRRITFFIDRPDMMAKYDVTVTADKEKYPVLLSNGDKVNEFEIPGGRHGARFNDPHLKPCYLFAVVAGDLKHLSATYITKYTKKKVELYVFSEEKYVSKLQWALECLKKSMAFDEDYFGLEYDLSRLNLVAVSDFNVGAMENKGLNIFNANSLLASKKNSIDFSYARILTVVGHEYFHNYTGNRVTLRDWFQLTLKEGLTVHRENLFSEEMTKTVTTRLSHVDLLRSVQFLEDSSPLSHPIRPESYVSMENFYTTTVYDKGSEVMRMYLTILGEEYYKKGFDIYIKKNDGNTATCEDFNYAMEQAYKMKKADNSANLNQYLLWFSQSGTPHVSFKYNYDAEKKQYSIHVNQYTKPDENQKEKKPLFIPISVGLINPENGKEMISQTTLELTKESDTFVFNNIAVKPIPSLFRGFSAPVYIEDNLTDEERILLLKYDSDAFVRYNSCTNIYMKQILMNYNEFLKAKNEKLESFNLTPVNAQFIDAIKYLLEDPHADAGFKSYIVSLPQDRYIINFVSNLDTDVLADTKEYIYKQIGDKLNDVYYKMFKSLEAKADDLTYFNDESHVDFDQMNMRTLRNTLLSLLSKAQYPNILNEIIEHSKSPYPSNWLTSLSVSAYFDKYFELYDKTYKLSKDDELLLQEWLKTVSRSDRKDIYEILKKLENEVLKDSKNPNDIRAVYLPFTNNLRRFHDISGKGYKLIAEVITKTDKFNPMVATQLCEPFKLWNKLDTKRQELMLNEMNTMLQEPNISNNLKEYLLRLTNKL

[15] = target: T4, Fatty acid synthase (Homo sapiens, UniProt P49327); assay: FAS thioesterase domain inhibitors, dose response, biochemical, kinetic fluorescence intensity (AID 624326); assay type: functional;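 further: rate of fluorescence rise from hydrolysis of a fluorogenic O-methyl fluorescein ester substrate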
[16] = target: T4, Fatty acid synthase; assay: FAS thioesterase domain inhibitors, dose response, biochemical, endpoint fluorescence intensity, uHTS hits (AID 624327); assay type: functional;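 further: fluorescence from hydrolysis of an O-methyl fluorescein acyl ester substrate by the enzyme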
[17] = target: T5, Carboxy-terminal domain RNA polymerase II polypeptide A small phosphatase 1 (Homo sapiens, UniProt Q9GZU7); assay: inhibitors of CTDSP1, concentration-response testing, biochemical assay, absorbance-based, actives from ultra-high-throughput screening (AID 540297); assay type: functional
T5 sequence (Q9GZU7 whole entry): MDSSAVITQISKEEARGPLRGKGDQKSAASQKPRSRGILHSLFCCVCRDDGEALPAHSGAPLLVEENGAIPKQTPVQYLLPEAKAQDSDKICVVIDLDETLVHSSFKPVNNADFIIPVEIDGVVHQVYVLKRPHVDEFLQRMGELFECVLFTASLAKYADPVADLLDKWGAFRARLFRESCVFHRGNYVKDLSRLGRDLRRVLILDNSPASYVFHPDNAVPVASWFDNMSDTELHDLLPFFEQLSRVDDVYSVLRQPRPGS

T4 sequence (P49327 whole entry, the tested form may be a part): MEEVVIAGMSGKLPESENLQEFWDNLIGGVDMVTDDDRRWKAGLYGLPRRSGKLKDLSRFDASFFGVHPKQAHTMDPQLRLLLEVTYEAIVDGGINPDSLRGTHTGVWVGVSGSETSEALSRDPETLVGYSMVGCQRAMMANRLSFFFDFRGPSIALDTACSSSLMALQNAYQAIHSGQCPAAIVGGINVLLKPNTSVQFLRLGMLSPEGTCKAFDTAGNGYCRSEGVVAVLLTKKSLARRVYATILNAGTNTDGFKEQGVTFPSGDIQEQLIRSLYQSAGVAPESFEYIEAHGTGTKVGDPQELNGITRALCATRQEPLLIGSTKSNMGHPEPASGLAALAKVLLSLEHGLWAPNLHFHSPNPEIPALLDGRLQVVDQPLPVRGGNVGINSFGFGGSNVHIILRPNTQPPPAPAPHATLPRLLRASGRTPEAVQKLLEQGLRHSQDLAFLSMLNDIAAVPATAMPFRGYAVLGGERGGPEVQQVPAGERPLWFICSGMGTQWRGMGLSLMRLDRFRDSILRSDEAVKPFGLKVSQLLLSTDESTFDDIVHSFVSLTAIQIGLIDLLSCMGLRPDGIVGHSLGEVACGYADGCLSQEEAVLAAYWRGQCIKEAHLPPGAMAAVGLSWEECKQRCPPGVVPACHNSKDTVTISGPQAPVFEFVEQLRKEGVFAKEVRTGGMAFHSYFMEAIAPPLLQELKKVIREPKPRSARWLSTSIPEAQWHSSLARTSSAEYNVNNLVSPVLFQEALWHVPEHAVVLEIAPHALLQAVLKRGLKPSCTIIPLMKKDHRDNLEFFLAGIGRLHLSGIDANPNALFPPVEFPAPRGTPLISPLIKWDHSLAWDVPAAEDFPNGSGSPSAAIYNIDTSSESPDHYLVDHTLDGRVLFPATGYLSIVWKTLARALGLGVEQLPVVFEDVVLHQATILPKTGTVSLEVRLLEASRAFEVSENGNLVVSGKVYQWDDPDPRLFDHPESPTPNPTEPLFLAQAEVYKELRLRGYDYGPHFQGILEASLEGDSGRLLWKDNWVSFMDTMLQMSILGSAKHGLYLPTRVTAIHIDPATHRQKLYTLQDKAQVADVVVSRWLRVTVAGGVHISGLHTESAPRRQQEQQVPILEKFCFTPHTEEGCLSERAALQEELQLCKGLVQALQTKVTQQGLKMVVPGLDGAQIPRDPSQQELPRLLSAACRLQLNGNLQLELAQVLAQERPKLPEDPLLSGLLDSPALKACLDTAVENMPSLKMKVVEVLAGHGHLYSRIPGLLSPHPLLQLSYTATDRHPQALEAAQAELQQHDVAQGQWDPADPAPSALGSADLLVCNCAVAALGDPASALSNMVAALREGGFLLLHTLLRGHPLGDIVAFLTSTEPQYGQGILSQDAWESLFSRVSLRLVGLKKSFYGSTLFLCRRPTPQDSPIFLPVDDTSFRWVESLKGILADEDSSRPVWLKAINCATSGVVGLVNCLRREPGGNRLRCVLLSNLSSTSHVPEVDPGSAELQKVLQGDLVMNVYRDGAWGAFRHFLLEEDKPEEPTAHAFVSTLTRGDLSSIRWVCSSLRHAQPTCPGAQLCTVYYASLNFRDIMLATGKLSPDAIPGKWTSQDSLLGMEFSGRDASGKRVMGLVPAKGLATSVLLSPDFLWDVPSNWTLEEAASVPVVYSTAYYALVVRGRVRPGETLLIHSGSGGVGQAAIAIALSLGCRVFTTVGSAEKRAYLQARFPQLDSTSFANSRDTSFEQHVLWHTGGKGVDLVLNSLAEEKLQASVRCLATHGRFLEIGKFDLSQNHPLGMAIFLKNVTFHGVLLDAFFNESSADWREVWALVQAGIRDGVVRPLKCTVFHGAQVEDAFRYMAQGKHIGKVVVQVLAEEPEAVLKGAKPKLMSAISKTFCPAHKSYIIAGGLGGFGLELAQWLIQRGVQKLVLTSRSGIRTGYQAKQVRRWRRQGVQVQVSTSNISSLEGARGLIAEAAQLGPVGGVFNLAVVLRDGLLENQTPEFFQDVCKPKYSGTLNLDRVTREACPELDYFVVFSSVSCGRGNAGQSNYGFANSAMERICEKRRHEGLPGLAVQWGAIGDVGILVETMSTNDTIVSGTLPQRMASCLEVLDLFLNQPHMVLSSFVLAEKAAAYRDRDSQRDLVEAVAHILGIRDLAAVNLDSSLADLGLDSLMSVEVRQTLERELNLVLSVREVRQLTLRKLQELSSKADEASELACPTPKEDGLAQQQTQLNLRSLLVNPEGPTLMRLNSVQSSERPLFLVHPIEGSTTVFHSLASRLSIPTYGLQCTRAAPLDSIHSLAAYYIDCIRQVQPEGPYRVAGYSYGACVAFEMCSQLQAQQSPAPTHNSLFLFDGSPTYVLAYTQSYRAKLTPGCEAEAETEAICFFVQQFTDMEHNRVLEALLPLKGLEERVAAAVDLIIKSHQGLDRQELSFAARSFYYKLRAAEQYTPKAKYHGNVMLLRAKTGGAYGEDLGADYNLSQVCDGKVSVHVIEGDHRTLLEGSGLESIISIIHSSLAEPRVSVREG
Chain of Kallikrein-7 (P49862 whole entry): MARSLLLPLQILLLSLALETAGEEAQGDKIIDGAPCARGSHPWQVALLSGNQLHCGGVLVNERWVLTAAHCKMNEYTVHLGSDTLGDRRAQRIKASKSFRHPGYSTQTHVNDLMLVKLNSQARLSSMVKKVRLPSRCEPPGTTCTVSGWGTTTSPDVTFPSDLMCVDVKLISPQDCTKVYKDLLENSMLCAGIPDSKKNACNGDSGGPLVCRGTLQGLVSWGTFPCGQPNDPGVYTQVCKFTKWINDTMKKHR
Chain of Ion channel NompC (Q7T1G6 whole entry): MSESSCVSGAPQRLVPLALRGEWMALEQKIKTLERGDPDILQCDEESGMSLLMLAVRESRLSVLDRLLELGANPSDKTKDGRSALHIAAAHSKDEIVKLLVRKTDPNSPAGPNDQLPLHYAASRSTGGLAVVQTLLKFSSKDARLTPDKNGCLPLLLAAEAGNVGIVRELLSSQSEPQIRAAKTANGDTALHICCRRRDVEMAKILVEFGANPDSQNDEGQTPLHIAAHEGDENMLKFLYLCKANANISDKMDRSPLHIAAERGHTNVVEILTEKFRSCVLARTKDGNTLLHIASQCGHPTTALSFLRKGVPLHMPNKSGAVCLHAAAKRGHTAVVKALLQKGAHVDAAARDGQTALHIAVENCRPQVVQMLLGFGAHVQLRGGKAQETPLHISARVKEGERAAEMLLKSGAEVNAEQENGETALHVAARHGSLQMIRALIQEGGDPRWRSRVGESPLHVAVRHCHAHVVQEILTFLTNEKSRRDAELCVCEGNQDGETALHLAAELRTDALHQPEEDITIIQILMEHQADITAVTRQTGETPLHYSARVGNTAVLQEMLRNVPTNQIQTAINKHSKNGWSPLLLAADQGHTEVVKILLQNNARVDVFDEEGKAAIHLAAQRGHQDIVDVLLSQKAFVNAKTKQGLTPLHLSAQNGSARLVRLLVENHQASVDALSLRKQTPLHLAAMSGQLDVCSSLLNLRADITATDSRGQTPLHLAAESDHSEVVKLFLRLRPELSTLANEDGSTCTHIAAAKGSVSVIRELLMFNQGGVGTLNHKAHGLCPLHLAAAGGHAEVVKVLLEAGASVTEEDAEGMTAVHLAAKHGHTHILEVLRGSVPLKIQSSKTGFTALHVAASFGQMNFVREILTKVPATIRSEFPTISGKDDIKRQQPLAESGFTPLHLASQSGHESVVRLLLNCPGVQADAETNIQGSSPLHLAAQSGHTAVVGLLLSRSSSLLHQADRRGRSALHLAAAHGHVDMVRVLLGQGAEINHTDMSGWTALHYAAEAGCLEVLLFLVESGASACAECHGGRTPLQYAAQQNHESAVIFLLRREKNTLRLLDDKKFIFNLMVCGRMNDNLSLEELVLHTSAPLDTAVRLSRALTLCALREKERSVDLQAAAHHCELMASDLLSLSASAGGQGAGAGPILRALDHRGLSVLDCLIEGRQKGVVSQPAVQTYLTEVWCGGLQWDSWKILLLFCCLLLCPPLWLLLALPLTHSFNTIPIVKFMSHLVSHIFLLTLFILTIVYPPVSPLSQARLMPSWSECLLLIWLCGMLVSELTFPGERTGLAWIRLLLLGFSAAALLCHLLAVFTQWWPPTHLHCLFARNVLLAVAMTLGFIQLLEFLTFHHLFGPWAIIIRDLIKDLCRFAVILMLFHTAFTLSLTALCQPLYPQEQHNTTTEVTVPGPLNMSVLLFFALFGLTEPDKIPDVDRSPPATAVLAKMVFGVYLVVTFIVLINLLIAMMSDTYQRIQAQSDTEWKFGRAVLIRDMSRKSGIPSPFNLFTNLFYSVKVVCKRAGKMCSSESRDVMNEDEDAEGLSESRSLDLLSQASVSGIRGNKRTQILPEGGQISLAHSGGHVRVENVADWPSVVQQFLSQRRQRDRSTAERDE

For `CC1CCCC(C)N1C(=O)CN1CCN(c2nc(-c3ccc(F)cc3)cs2)CC1` (configuration not stated), the EC50 [1] was 27.4 µM (not active) and the EC50 [2] was > 29.9 µM (not active).

For `Cc1cccc(CC2CC(=O)N(C3CCCCC3)C2=O)c1` (configuration not stated), the EC50 [1] was 3.41 µM (active) and the EC50 [2] was > 29.9 µM (not active).

In the case of `C[N+]12CN3CN(CN(C3)C1)C2`, the EC50 [3] is reported as > 50 µM (active).

In the case of `Nc1nccnc1C(=O)OCc1nc2sc3c(c2c(=O)[nH]1)CCCC3`, the EC50 [4] is reported as 6.32 µM (active).

In the case of `O=C(CN1CCCC1)Nc1ccc(-c2nc3cc(NC(=O)CN4CCCC4)ccc3o2)cc1`, the EC50 [5] is reported as > 350 µM (not active), the EC50 [6] is reported as > 350 µM (not active) and the AC50 [7] is reported as 12.5 µM (active). For the same compound, the EC50 [3] was > 50 µM (active).

With `C[C@@H]1CN([C@H](C)CO)C(=O)c2cccc(NC(=O)CCCCCC(=O)Nc3ccccc3N)c2O[C@@H]1CN(C)S(=O)(=O)c1ccccc1` the AC50 [8] was 0.507 µM (active), the AC50 [9] was 3.26 µM (active) and the AC50 [10] was 0.549 µM (active). The AC50 [11] was 70.7 µM (active), the AC50 [12] was 0.573 µM (active) and the AC50 [13] was 0.989 µM (active).

For `CC1CCCCC1NC(=O)CSc1nnc(-c2ccccc2)n1N` (configuration not stated), the IC50 [14] was 46.8 µM (active).

In the case of `CC(=O)Nc1ccc(C2Nc3ccccc3C(=O)N2C2CCCCC2)cc1` (configuration not stated), the EC50 [4] is reported as > 69.5 µM (inactive).

In the case of `O=C(O)c1cc(-c2ccc(/C=N/NC(=S)Nc3ccccc3)o2)ccc1Cl`, the IC50 [15] is reported as 16.1 µM (active), the IC50 [16] is reported as 15.8 µM (active) and the IC50 [17] is reported as 12.1 µM (active). For the same compound, the IC50 [14] was 31.2 µM (active).
